Source: ChEMBL document CHEMBL1152765, “Discovery of new inhibitors of the bacterial peptidoglycan biosynthesis enzymes MurD and MurF by structure-based virtual screening” (Bioorg Med Chem, 2009)
≈ marks a conversion by molar mass, not a printed value. Calls of active or inactive are those of the source. No cut-off for these calls is given here.

How the values were obtained:
[1] = Inhibition of Escherichia coli MurD assessed as blockade of addition of D-[14C]Glu to UDP-MurNAc-L-Ala
Escherichia coli [2] = experiment: Antibacterial activity against Escherichia coli 1411 after 18 hrs by broth microdilution method; assay type: functional, organism-based
Escherichia coli [3] = experiment: Antibacterial activity against AcrAB deficient Escherichia coli SM1411 after 18 hrs by broth microdilution method; assay type: functional, organism-based
Staphylococcus aureus = experiment: Antibacterial activity against Staphylococcus aureus 8325-4 after 18 hrs by broth microdilution method; assay type: functional
Escherichia coli [4] = experiment: Inhibition of Escherichia coli MurD assessed as residual activity at 250 uM by malachite green assay
Escherichia coli [5] = experiment: Inhibition of Escherichia coli MurF assessed as residual activity at 250 uM by malachite green assay
[6] = Inhibition of Escherichia coli MurF

SMILES | IC50 [1] | Activity (Escherichia coli [4]) | Activity (Escherichia coli [5]) | IC50 [6] | MIC (Staphylococcus aureus) | Activity (Escherichia coli [2]) | Activity (Escherichia coli [3]) | Activity (Staphylococcus aureus)
CC1C2C=CC1C(c1c3ccc(=O)c(O)c-3oc3c(O)c(O)ccc13)C2C(=O)O (stereo unspecified) | 43 µM |  |  |  |  | inactive | inactive | inactive
O=C(O)c1cc2c(cc1S(=O)(=O)O)C1C(C3C2C2(Cl)C(Cl)=C(Cl)C3(Cl)C2(Cl)Cl)C2(Cl)C(Cl)=C(Cl)C1(Cl)C2(Cl)Cl (stereo unspecified) | 34 µM | < 50% |  |  |  | inactive | inactive | inactive
O=C(O)C1C(C(=O)O)C2(Cl)C(Cl)=C(Cl)C1(Cl)C2(Cl)Cl (stereo unspecified) |  | < 50% |  |  |  | inactive | inactive | inactive
FC(F)(F)c1nc2ccc(SSc3ccc4nc(C(F)(F)F)[nH]c4c3)cc2[nH]1 |  |  | < 50% |  |  | inactive | inactive | inactive
CSc1ccc2c(c1)c(CCN)c(C)n2Cc1ccccc1Cl |  |  | < 50% |  |  | inactive | inactive | inactive
Oc1nc(S)nc(SCc2c(Cl)c(Cl)c(Cl)c(Cl)c2Cl)n1 |  |  | < 50% | 63 µM | 128 µg/mL (≈ 302 µM) |  | Active | 
Sc1nnc(SCc2ccccc2Cl)c2nc[nH]c12 |  |  | < 50% |  |  | inactive | inactive | inactive
Oc1ccccc1C(Sc1nc2ccccc2s1)Sc1nc2ccccc2s1 |  |  | < 50% |  |  | inactive | inactive | inactive
CCCCCCCCCCCCN(C)C |  |  | < 50% |  |  | inactive | inactive | inactive
O=S(=O)(O)c1cc(/N=[N+](\[O-])c2cc(S(=O)(=O)O)c3ccccc3c2)cc2ccccc12 |  |  | < 50% |  |  | inactive | inactive | inactive
CCOc1ccc2c(c1)C=C/C(=C/C=C1\C=C(C)c3cccnc3C1=O)N2C |  |  | < 50% |  |  | inactive | inactive | inactive

More lines, main results first:

IC50 [1] | Activity (Escherichia coli [4]) | Activity (Escherichia coli [5]) | IC50 [6] | MIC (Staphylococcus aureus) | SMILES | Activity (Escherichia coli [2]) | Activity (Escherichia coli [3]) | Activity (Staphylococcus aureus)
 |  | < 50% |  |  | Nc1c(S(=O)(=O)O)cc(Nc2cccc(S(N)(=O)=O)c2)c2c1C(=O)c1ccccc1C2=O | inactive | inactive | inactive
10 µM | < 50% |  |  |  | O=C(O)c1c(Br)c(Br)c(Br)c(Br)c1C1c2ccc(O)cc2Oc2cc(O)ccc21 | inactive | inactive | inactive
47 µM | < 50% |  |  |  | O=C(O)/C=C/c1c2ccc(=O)c(O)c-2oc2c(O)c(O)ccc12 | inactive | inactive | inactive
 |  | < 50% |  |  | O=C1/C(=N/CCc2cc(Br)c(O)c(Br)c2)C=C(O)c2cccnc21 | inactive | inactive | inactive
 |  | < 50% |  |  | O=S(=O)(O)c1ccc2c(/N=N/c3c(O)ccc4ccccc34)cccc2c1 | inactive | inactive | inactive
 |  | < 50% |  |  | O=C(O)c1c(Cl)c(Cl)c(Cl)c(Cl)c1C(=O)Nc1ccc2cn[nH]c2c1 | inactive | inactive | inactive
